These results are taken from ChEMBL document CHEMBL4359892, “Discovery of novel indolylarylsulfones as potent HIV-1 NNRTIs via structure-guided scaffold morphing” (Eur J Med Chem, 2019).

The test system of data set [1] is Human immunodeficiency virus 1. Nature of the data set: Antiviral activity against drug resistant HIV-1 RES056 harboring reverse transcriptase K103N/Y181C double mutant infected in human MT4 cells assessed as reduction in virus-induced cytopathic effect incubated for 5 days by MTT assay. It is filed as functional, organism-based. To be noted: Human immunodeficiency virus 1, RES056, MT4, 120 h. (Damage to the host cells serves as the signal in cytopathic effect assays.)

The nature of data set [2]: Selectivity index, ratio of CC50 for human MT4 cells to EC50 for antiviral activity against HIV IIIB. The following applies: read-out: Ratio CC50/EC50. It is filed as toxicity.
The subject of data set [3] is Human immunodeficiency virus 1. Nature of the data set: Antiviral activity against HIV-1 3B infected in human MT4 cells assessed as reduction in virus-induced cytopathic effect incubated for 5 days by MTT assay. It is filed as functional, organism-based. To be noted: Human immunodeficiency virus 1, 3B, MT4, 120 h.
Data set [4] in a line: Cytotoxicity against human MT4 cells assessed as reduction in cell viability incubated for 5 days by MTT assay. It is filed as cell-based. For orientation: Tetrazolium dyes change colour on reduction, which living cells bring about.
Data set [5] in a line: Selectivity index, ratio of CC50 for human MT4 cells to EC50 for antiviral activity against HIV RES056. It is filed as toxicity. The following applies: read-out: Ratio CC50/EC50.

What is called EC50 is the concentration needed to bring the measured effect to its halfway point. The term CC50 denotes the concentration that lowers cell viability or growth by half. Take `Cc1cc(C)cc(S(=O)(=O)c2c(C(=O)N[C@@H]3CCN(Cc4ccccc4C#N)C3)[nH]c3ccc(Cl)cc23)c1`: the concentration for a half-maximal effect (EC50) in data set [1] is more than 186 µM; in data set [3], 0.053 µM. The selectivity ratio in data set [2] is 2580. Moreover, the 50% cytotoxic concentration (CC50) at 120 h in data set [4] was not below 186 µM.
Consider `Cc1cc(C)cc(S(=O)(=O)c2c(C(=O)N[C@H]3CCN(Cc4n[nH]c(=O)n4C)C3)[nH]c3ccc(Cl)cc23)c1`, for which the EC50 in data set [1] was not below 21.4 µM; in data set [3], 0.0072 µM. Besides, the values for the selectivity ratio in data set [2] and in data set [5] were 2980 and less than 1, respectively. Also, the CC50 at 120 h in data set [4] was determined as 21.4 µM.
With `Cc1cc(C)cc(S(=O)(=O)c2c(C(=O)NCCn3ccc(=O)[nH]c3=O)[nH]c3ccc(Cl)cc23)c1`, the EC50 in data set [1] is more than 265 µM; in data set [3], 4.42 µM. Further, in data set [2], the selectivity ratio is more than 60. Also, in data set [4], the CC50 at 120 h is more than 265 µM.
As for `Cc1cc(C)cc(S(=O)(=O)c2c(C(=O)NC3CN(S(C)(=O)=O)C3)[nH]c3ccc(Cl)cc23)c1`, the EC50 in data set [1] is more than 252 µM; in data set [3], 0.017 µM. Besides, the selectivity ratio in data set [2] was more than 15200. Further, in data set [4], the CC50 at 120 h was more than 252 µM.
With `Cc1cc(C)cc(S(=O)(=O)c2c(C(=O)N[C@H]3CCN(Cc4ccccc4C#N)C3)[nH]c3ccc(Cl)cc23)c1`, the results for the EC50 in data set [1] and in data set [3] were 174 µM and 0.17 µM, respectively. In addition, the selectivity ratio in data set [2] is more than 1350; in data set [5], more than 1. In addition, in data set [4], the CC50 at 120 h is more than 229 µM.
In the same order, the values of `Cc1cc(C)cc(S(=O)(=O)c2c(C(=O)NC3CN(Cc4cccnc4)C3)[nH]c3ccc(Cl)cc23)c1` are more than 36 µM, 0.015 µM, 2480, less than 1 and 36 µM.
With `Cc1cc(C)cc(S(=O)(=O)c2c(C(=O)N[C@H]3CCN(Cc4ccccc4F)C3)[nH]c3ccc(Cl)cc23)c1`, the EC50 in data set [1] was not below 215 µM; in data set [3] it was 0.083 µM. Besides, the selectivity ratio in data set [2] is 2580; in data set [5] it was less than 1. Further, the CC50 at 120 h in data set [4] worked out at 215 µM.
In the same order, the values of `Cc1cc(C)cc(S(=O)(=O)c2c(C(=O)NS(C)(=O)=O)[nH]c3ccc(Cl)cc23)c1` are not below 9.44 µM, 0.0096 µM, 4180, not above 4 and 40.1 µM.
As to `Cc1cc(C)cc(S(=O)(=O)c2c(C(=O)N[C@@H]3CCN(Cc4cccnc4)C3)[nH]c3ccc(Cl)cc23)c1`, the figures for the EC50 in data set [1] and in data set [3] were not below 36.5 µM and 0.057 µM, respectively. Moreover, the selectivity ratio is 627 in data set [2] and less than 1 in data set [5]. Moreover, the half-maximal cytotoxic concentration (CC50) at 120 h in data set [4] is 36.5 µM.
For `Cc1cc(C)cc(S(=O)(=O)c2c(C(=O)N[C@@H]3CCN(Cc4n[nH]c(=O)n4C)C3)[nH]c3ccc(Cl)cc23)c1`, in that order: not below 22.4 µM, 0.035 µM, 634, less than 1 and 22.4 µM.
In the same order, the values of `Cc1cc(C)cc(S(=O)(=O)c2c(C(=O)N[C@H]3CCN(Cc4cccnc4)C3)[nH]c3ccc(Cl)cc23)c1` are not below 22.8 µM, 0.011 µM, 2010, less than 1 and 22.8 µM.
Consider `Cc1cc(C)cc(S(=O)(=O)c2c(C(=O)N[C@@H]3CCNC3)[nH]c3ccc(Cl)cc23)c1`, for which the results for the EC50 in data set [1] and in data set [3] were not below 9.72 µM and 0.049 µM, respectively. The selectivity ratio in data set [5] is less than 1. Also, the CC50 at 120 h in data set [4] was determined as 37.3 µM.
Consider `Cc1cc(C)cc(S(=O)(=O)c2c(C(=O)N[C@@H]3CCN(Cc4ccccc4F)C3)[nH]c3ccc(Cl)cc23)c1`, for which the EC50 in data set [1] was more than 232 µM; in data set [3] it was 0.12 µM. In addition, the selectivity ratio in data set [2] was more than 1860. The CC50 at 120 h in data set [4] is more than 232 µM.
For `Cc1cc(C)cc(S(=O)(=O)c2c(C(=O)NCCP(=O)(O)O)[nH]c3ccc(Cl)cc23)c1`, the results for the EC50 in data set [1] and in data set [3] were more than 237 µM and 0.21 µM, respectively. Moreover, in data set [2], the selectivity ratio is more than 1100. In addition, the CC50 at 120 h in data set [4] was more than 237 µM.
